Measured values reported in BindingDB's records for patent US10759792 (The Johns Hopkins University, 2020).
pIC50: −log10 of the molar value.

Biological target: Calcium/calmodulin-dependent protein kinase type II subunit delta (Homo sapiens, UniProt Q13557)
Test: Inhibition Assay
Method: Compounds were added in 5 uL volume to wells in UV transparent 96-well plates ( area well size). The final compound concentrations tested ranged from 0.5 nM to 10 uM). Assays were performed in duplicate. CaMKIIδ is added to at a final concentration of 16 nM to a mixture containing 100 mM Tris (pH 7.5), 150 mM KCl, 0.27 mM EGTA, 1.3 mM PEP, 0.2 mg/ml AC3, 6.9% (v/v) PK/LDH mixture (Sigma P0294), 0.38 mM NADH and kept on ice. 72 uL of the enzyme mixture was added to the wells containing compounds and the plate was shaken briefly and kept on ice. The assay was initiated by adding 23 uL of a mixture containing 100 mM Tris (pH 7.5), 150 mM KCl, 1.7 mM CaCl2, 48 mM MgCl2, 0.35 mM ATP and 6.7 ug/mL calmodulin. The rate of ADP released was measured as the rate of absorbance decrease at […] at 25° C.

Sequence of Calcium/calmodulin-dependent protein kinase type II subunit delta (Q13557 whole entry): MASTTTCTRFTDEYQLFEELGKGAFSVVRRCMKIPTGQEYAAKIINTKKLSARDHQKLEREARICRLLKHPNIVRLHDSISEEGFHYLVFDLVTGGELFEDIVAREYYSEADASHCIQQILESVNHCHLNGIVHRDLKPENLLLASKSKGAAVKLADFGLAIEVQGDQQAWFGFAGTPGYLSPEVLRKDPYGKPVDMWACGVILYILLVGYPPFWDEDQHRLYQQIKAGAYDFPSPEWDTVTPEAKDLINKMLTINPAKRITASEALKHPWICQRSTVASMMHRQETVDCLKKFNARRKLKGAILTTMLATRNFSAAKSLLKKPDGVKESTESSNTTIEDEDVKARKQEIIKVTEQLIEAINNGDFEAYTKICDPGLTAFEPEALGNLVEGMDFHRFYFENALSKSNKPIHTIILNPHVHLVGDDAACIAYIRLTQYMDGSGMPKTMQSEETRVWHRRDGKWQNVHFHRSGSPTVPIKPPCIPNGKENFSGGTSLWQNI

| SMILES | pIC50 |
| --- | --- |
| NCCCNc1cccc(-c2ccnc3[nH]c4ccccc4c23)c1 [US10759792, Compound I-8] | > 7.30 |
| Cc1ccc2c(c1)[nH]c1nccc(-c3cccc(NCCN)c3)c12 [US10759792, Compound I-11] | > 7.30 |
